Source: ChEMBL document CHEMBL5528043, “Development of Potent Mcl-1 Inhibitors: Structural Investigations on Macrocycles Originating from a DNA-Encoded Chemical Library Screen” (J Med Chem, 2024)
≈ marks a conversion by molar mass, not a printed value.

How the values were obtained:
[1] = target: Induced myeloid leukemia cell differentiation protein Mcl-1 (Homo sapiens, UniProt Q07820); test: Inhibition of Mcl-1 (172-327) (unknown origin) using BIOTIN-AHXGQVGRQLAIIGDDINR-amide peptide by TR-FRET based BAK peptide displacement assay
[2] = tested on: NCI-H929; test: Cytotoxicity against human NCI-H929 cells assessed as cell viability measured after 72 hrs incubation by CellTiterGlo assay; type: functional, cell-based; details: NCI-H929, 72 h
[3] = Kinetic solubility of the compound in pH 7.4 buffer measured after 24 hrs by LC-UV analysis; type: physicochemical; details: read-out: Kinetic_solubility

Chain of Induced myeloid leukemia cell differentiation protein Mcl-1 (Q07820 whole entry): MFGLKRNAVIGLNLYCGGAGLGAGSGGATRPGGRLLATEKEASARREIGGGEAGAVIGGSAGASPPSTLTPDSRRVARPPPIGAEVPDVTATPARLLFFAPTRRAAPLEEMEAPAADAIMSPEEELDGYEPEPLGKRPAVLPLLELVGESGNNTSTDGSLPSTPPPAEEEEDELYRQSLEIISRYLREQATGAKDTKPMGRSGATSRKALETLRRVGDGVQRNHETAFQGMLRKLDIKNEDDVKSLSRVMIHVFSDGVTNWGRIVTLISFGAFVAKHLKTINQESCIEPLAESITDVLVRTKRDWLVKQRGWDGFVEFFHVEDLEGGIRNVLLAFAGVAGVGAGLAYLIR

| SMILES | IC50 [1] [nM] | solubility kinetic at 24 h [3] [µM] | IC50 [2] [nM] |
| --- | --- | --- | --- |
| CCOc1cccc2c1OC(C)(C)C(=O)N[C@H]1CC[C@H](CC1)CC(=O)N[C@@H](c1ccccc1)C(=O)N[C@H](Cc1ccccc1)C(=O)NCCc1ccc(cc1)OC2 | 59 |  |  |
| CCOc1cc(-c2ccc(C(F)(F)F)cc2)cc2c1OCC(=O)N[C@H]1CC[C@H](CC1)CC(=O)N[C@@H](c1ccccc1)C(=O)N[C@H](Cc1ccccc1)C(=O)NCCc1ccc(cc1)OC2 | 39000 |  | 7100 |
| CCOc1cc(-c2ccc(F)c(OC)c2)cc2c1OCC(=O)N[C@H]1CC[C@H](CC1)CC(=O)N[C@@H](c1ccccc1)C(=O)N[C@H](Cc1ccccc1)C(=O)NCCc1ccc(cc1)OC2 | 50000 |  | 2100 |
| CCOc1cccc2c1OCC(=O)N[C@H]1CC[C@H](CC1)CC(=O)N(c1ccccc1)CC(=O)N(Cc1ccccc1)CC(=O)NCCc1ccc(cc1)OC2 | > 30000 |  |  |
| CCOc1cccc2c1OCC(=O)N[C@H]1CC[C@H](CC1)CC(=O)N[C@@H](Cc1ccc(O)cc1)C(=O)N[C@H](Cc1ccccc1)C(=O)NCCc1ccc(cc1)OC2 | 1370 | 37 (≈ 28.7 µg/mL) |  |
| CCOc1cccc2c1OCC(=O)N[C@H]1CC[C@H](CC1)CC(=O)N(c1ccccc1)CC(=O)N[C@H](Cc1ccccc1)C(=O)NCCc1ccc(cc1)OC2 | > 30000 |  |  |
| CCOc1cccc2c1OCC(=O)N[C@H]1CC[C@H](CC1)CC(=O)N[C@@H](c1ccccc1)C(=O)N(C)[C@H](Cc1ccccc1)C(=O)NCCc1ccc(cc1)OC2 | 382 |  |  |
| CCOc1cccc2c1OCC(=O)N[C@H]1CC[C@H](CC1)CC(=O)N[C@@](C)(c1ccccc1)C(=O)N[C@H](Cc1ccccc1)C(=O)NCCc1ccc(cc1)OC2 | 1430 | 4 (≈ 3.04 µg/mL) |  |
| CCOc1cccc2c1OCC(=O)N[C@H]1CC[C@H](CC1)CC(=O)N[C@@H](CC1CCCCC1)C(=O)N[C@H](Cc1ccccc1)C(=O)N[C@H](C(=O)NC)Cc1ccc(cc1)OC2 | 101 |  |  |
| CCOc1cc(-c2ccc(F)c(C)c2)cc2c1OCC(=O)N[C@H]1CC[C@H](CC1)CC(=O)N[C@@H](c1ccccc1)C(=O)N[C@H](Cc1ccccc1)C(=O)NCCc1ccc(cc1)OC2 | 54000 |  | 2900 |
| CCOc1cc(C#Cc2cc(C)cc(C)c2)cc2c1OCC(=O)N[C@H]1CC[C@H](CC1)CC(=O)N[C@@H](c1ccccc1)C(=O)N[C@H](Cc1ccccc1)C(=O)NCCc1ccc(cc1)OC2 | 14000 |  | 3400 |
| CCOc1cc(-c2cc(C)cc(C)c2)cc2c1OCC(=O)N[C@H]1CC[C@H](CC1)CC(=O)N[C@@H](c1ccccc1)C(=O)N[C@H](Cc1ccccc1)C(=O)NCCc1ccc(cc1)OC2 | 15000 |  | > 10000 |
| CCOc1cccc2c1OCC(=O)N[C@H]1CC[C@H](CC1)CC(=O)N[C@@H](CCS(C)(=O)=O)C(=O)N[C@H](Cc1ccccc1)C(=O)NCCc1ccc(cc1)OC2 | 80 | 5 (≈ 3.88 µg/mL) |  |
| CCOc1cccc2c1OCC(=O)N[C@H]1CC[C@H](CC1)CC(=O)N[C@@H]([C@@H](C)OC)C(=O)N[C@H](Cc1ccccc1)C(=O)NCCc1ccc(cc1)OC2 | 678 | 25 (≈ 18.2 µg/mL) |  |
| CCOc1cccc2c1OCC(=O)N[C@H]1CC[C@H](CC1)CC(=O)N[C@@H](c1ccccc1)C(=O)N[C@H](CC1CCCCC1)C(=O)N[C@H](C(=O)NC)Cc1ccc(cc1)OC2 | 64 |  |  |
| CCOc1cc(C#Cc2cc(F)cc(F)c2)cc2c1OCC(=O)N[C@H]1CC[C@H](CC1)CC(=O)N[C@@H](c1ccccc1)C(=O)N[C@H](Cc1ccccc1)C(=O)NCCc1ccc(cc1)OC2 | 5600 |  | 3300 |
| CCOc1cccc2c1OCC(=O)N[C@H]1CC[C@H](CC1)CC(=O)N[C@@H](c1cccnc1)C(=O)N[C@H](Cc1ccccc1)C(=O)NCCc1ccc(cc1)OC2 | 43 | 6 (≈ 4.49 µg/mL) |  |
| CC(C)C[C@@H]1NC(=O)C[C@H]2CC[C@H](CC2)NC(=O)COc2c(Cl)cccc2COc2ccc(cc2)CCNC(=O)[C@@H](Cc2ccccc2)NC1=O | 253 |  |  |
| CCOc1cccc2c1OCC(=O)N[C@H]1CC[C@H](CC1)CC(=O)N(C)[C@@H](c1ccccc1)C(=O)N[C@H](Cc1ccccc1)C(=O)NCCc1ccc(cc1)OC2 | > 30000 |  |  |
| CCOc1cccc2c1OC(C)(C)C(=O)N[C@H]1CC[C@H](CC1)CC(=O)N[C@@H](c1ccccc1)C(=O)N[C@H](CC1CCCCC1)C(=O)NCCc1ccc(cc1)OC2 | 124 |  |  |
| CCOc1cccc2c1OCC(=O)N[C@H]1CC[C@H](CC1)CC(=O)N[C@@H](c1ccccc1)C(=O)N[C@H](CC1CCCCC1)C(=O)NCCc1ccc(cc1)OC2 | 227 |  |  |
| CCOc1cccc2c1OCC(=O)N[C@H]1CC[C@H](CC1)CC(=O)N[C@@H](CCSC)C(=O)N[C@H](Cc1ccccc1)C(=O)NCCc1ccc(cc1)OC2 | 212 | 9 (≈ 6.7 µg/mL) |  |
| CCOc1cccc2c1OCC(=O)N[C@H]1CC[C@H](CC1)CC(=O)N[C@@H](C(C)C)C(=O)N[C@H](Cc1ccccc1)C(=O)N[C@H](C(=O)NC)Cc1ccc(cc1)OC2 | 298 |  |  |
| CCOc1cccc2c1OCC(=O)N[C@H]1CC[C@H](CC1)CC(=O)N[C@@H](c1ccnc(OC)c1)C(=O)N[C@H](Cc1ccccc1)C(=O)NCCc1ccc(cc1)OC2 | 34 | 3 (≈ 2.33 µg/mL) |  |
| CCOc1cccc2c1OCC(=O)N[C@H]1CC[C@H](CC1)CC(=O)N[C@@H](c1ccccc1)C(=O)N[C@H](Cc1ccccc1)C(=O)N(C)CCc1ccc(cc1)OC2 (mixture of isomers) | 21800 |  |  |

Second part, led by results:

| IC50 [1] [nM] | solubility kinetic at 24 h [3] [µM] | SMILES | IC50 [2] [nM] |
| --- | --- | --- | --- |
| 98 |  | CCOc1cccc2c1OCC(=O)N[C@H]1CC[C@H](CC1)CC(=O)N[C@@H](CC(C)C)C(=O)N[C@H](CC1CCCCC1)C(=O)N[C@H](C(=O)NC)Cc1ccc(cc1)OC2 |  |
| 137 |  | CCOc1cccc2c1OC(C)(C)C(=O)N[C@H]1CC[C@H](CC1)CC(=O)N[C@@H](C(C)C)C(=O)N[C@H](Cc1ccccc1)C(=O)NCCc1ccc(cc1)OC2 |  |
| 174 |  | COc1cccc2c1OCC(=O)N[C@H]1CC[C@H](CC1)CC(=O)N[C@@H](c1ccccc1)C(=O)N[C@H](Cc1ccccc1)C(=O)NCCc1ccc(cc1)OC2 |  |
| 78 |  | O=C1C[C@H]2CC[C@H](CC2)NC(=O)COc2c(Cl)cccc2COc2ccc(cc2)CCNC(=O)[C@@H](Cc2ccccc2)NC(=O)[C@H](c2ccccc2)N1 |  |
| 7350 | 69 (≈ 51.8 µg/mL) | CCOc1cccc2c1OCC(=O)N[C@H]1CC[C@H](CC1)CC(=O)N[C@@H](Cc1c[nH]cn1)C(=O)N[C@H](Cc1ccccc1)C(=O)NCCc1ccc(cc1)OC2 |  |
| 1440 | 1 (≈ 0.8 µg/mL) | CCOc1cccc2c1OCC(=O)N[C@H]1CC[C@H](CC1)CC(=O)N[C@@H](Cc1c[nH]c3ccccc13)C(=O)N[C@H](Cc1ccccc1)C(=O)NCCc1ccc(cc1)OC2 |  |
| 271 |  | CCOc1cccc2c1OCC(=O)N[C@H]1CC[C@H](CC1)CC(=O)N[C@@H](CC1CCCCC1)C(=O)N[C@H](CC1CCCCC1)C(=O)N[C@H](C(=O)NC)Cc1ccc(cc1)OC2 |  |
| 179 |  | CCOc1cccc2c1OCC(=O)N[C@H]1CC[C@H](CC1)CC(=O)N[C@@H](C1CCCCC1)C(=O)N[C@H](CC1CCCCC1)C(=O)N[C@H](C(=O)NC)Cc1ccc(cc1)OC2 |  |
| 7100 |  | CCOc1cccc2c1OCC(=O)N[C@H]1CC[C@H](CC1)CC(=O)N[C@H](c1ccccc1)C(=O)N[C@H](Cc1ccccc1)C(=O)NCCc1ccc(cc1)OC2 |  |
| 234 |  | CCOc1cccc2c1OCC(=O)N[C@H]1CC[C@H](CC1)CC(=O)N[C@@H](c1ccccc1)C(=O)N(Cc1ccccc1)CC(=O)NCCc1ccc(cc1)OC2 |  |
| 90 |  | CCOc1cccc2c1OCC(=O)N[C@H]1CC[C@H](CC1)CC(=O)N[C@@H](CC(C)C)C(=O)N[C@H](Cc1ccccc1)C(=O)NCCc1ccc(cc1)OC2 |  |
